In the supplement of paper PMC11451515:

Test system: P12-Ichikawa
Assay: cell viability relative to DMSO control; higher = less cytotoxic
Conditions: 48 h
Procedure, shortened: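 NOMO1 or SEM cells were plated at 500 cells/well and P12-Ichikawa cells at 1000 cells/well in 1536-well plates (5 μl), after each leukemia line had been adapted for at least four passages in each medium. Pin dosing delivered library compounds in DMSO at 11 threefold concentrations, 47 μM to 0.79 nM. CellTiter-Glo One luminescence was read after 48 h at 37°C. Viability is reported as a per-plate percentage of DMSO wells, with cell-free wells as background.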

[1] = RPMI 5 mM glucose + 10% FBS, 0.000781 µM
[2] = RPMI 5 mM glucose + 10% FBS, 0.00234 µM
[3] = RPMI 5 mM glucose + 10% FBS, 0.00702 µM
[4] = RPMI 5 mM glucose + 10% FBS, 0.0211 µM
[5] = RPMI 5 mM glucose + 10% FBS, 0.0632 µM
[6] = RPMI 5 mM glucose + 10% FBS, 0.19 µM
[7] = RPMI 5 mM glucose + 10% FBS, 0.569 µM
[8] = RPMI 5 mM glucose + 10% FBS, 1.71 µM
[9] = RPMI 5 mM glucose + 10% FBS, 5.12 µM
[10] = RPMI 5 mM glucose + 10% FBS, 15.4 µM
[11] = RPMI 5 mM glucose + 10% FBS, 46.1 µM
[12] = HPLM + 10% dialyzed FBS, 0.000781 µM
[13] = HPLM + 10% dialyzed FBS, 0.00234 µM
[14] = HPLM + 10% dialyzed FBS, 0.00702 µM
[15] = HPLM + 10% dialyzed FBS, 0.0211 µM
[16] = HPLM + 10% dialyzed FBS, 0.0632 µM
[17] = HPLM + 10% dialyzed FBS, 0.19 µM
[18] = HPLM + 10% dialyzed FBS, 0.569 µM
[19] = HPLM + 10% dialyzed FBS, 1.71 µM
[20] = HPLM + 10% dialyzed FBS, 5.12 µM
[21] = HPLM + 10% dialyzed FBS, 15.4 µM
[22] = HPLM + 10% dialyzed FBS, 46.1 µM
[23] = RPMI 5 mM glucose + 10% dialyzed FBS, 0.000781 µM
[24] = RPMI 5 mM glucose + 10% dialyzed FBS, 0.00234 µM
[25] = RPMI 5 mM glucose + 10% dialyzed FBS, 0.00702 µM
[26] = RPMI 5 mM glucose + 10% dialyzed FBS, 0.0211 µM
[27] = RPMI 5 mM glucose + 10% dialyzed FBS, 0.0632 µM
[28] = RPMI 5 mM glucose + 10% dialyzed FBS, 0.19 µM
[29] = RPMI 5 mM glucose + 10% dialyzed FBS, 0.569 µM
[30] = RPMI 5 mM glucose + 10% dialyzed FBS, 1.71 µM
[31] = RPMI 5 mM glucose + 10% dialyzed FBS, 5.12 µM
[32] = RPMI 5 mM glucose + 10% dialyzed FBS, 15.4 µM
[33] = RPMI 5 mM glucose + 10% dialyzed FBS, 46.1 µM

Structure (SMILES)	cell viability [1]	cell viability [2]	cell viability [3]	cell viability [4]	cell viability [5]	cell viability [6]	cell viability [7]	cell viability [8]	cell viability [9]	cell viability [10]	cell viability [11]	cell viability [12]	cell viability [13]	cell viability [14]	cell viability [15]	cell viability [16]	cell viability [17]	cell viability [18]	cell viability [19]	cell viability [20]	cell viability [21]	cell viability [22]	cell viability [23]	cell viability [24]	cell viability [25]	cell viability [26]	cell viability [27]	cell viability [28]	cell viability [29]	cell viability [30]	cell viability [31]	cell viability [32]	cell viability [33]
NCC(=O)Nc1ccc(-n2nc(C(F)(F)F)cc2-c2ccc3c(ccc4ccccc43)c2)cc1	24.1%	123%	137%	133%	125%	120%	105%	106%	92.1%	79.2%	79%	–	–	–	–	–	–	–	–	–	–	–	–	–	–	–	–	–	–	–	–	–	–
O=[N+]([O-])c1cnc(Sc2nnc(O)n2-c2ccc3c(c2)OCCO3)s1	86.5%	84.3%	88%	94.1%	87.6%	92.5%	81.5%	90%	81.6%	3.89%	1.48%	87.4%	86.1%	87.7%	91%	91.8%	93.4%	94.2%	97%	87.8%	45.8%	2.64%	83.6%	78.6%	80.5%	84.1%	87.4%	89.2%	83.6%	79.2%	79.3%	1.24%	0.948%
COc1cc(OC)c(NC(=O)Nc2cc(C)on2)cc1Cl	90.3%	95.9%	96.8%	98.2%	108%	104%	95.5%	106%	107%	102%	101%	94.9%	98.8%	110%	99.6%	101%	106%	102%	106%	107%	110%	106%	98.1%	90.7%	97%	97.8%	96.5%	96.5%	106%	102%	96.2%	91.7%	92%
CCCCN(CCCC)C(=O)CN1C[C@H](c2ccc3c(c2)OCO3)[C@@H](C(=O)O)[C@@H]1c1ccc(OC)cc1	107%	122%	115%	61.9%	112%	122%	123%	118%	36.1%	105%	99.9%	112%	111%	113%	70.2%	116%	114%	107%	114%	106%	104%	88.4%	–	–	–	–	–	–	–	–	–	–	–
Cc1ccc(C(=O)c2cc(O)c(O)c([N+](=O)[O-])c2)cc1	90.2%	88.2%	85.9%	85.8%	102%	103%	95.1%	94.6%	84.3%	102%	102%	93.6%	93.5%	95.5%	103%	101%	104%	104%	102%	90.9%	101%	105%	82.5%	93.4%	95%	91.8%	89.3%	93.6%	99.2%	91%	84.7%	89.5%	91.4%
CCNC(=O)[C@H]1O[C@@H](n2cnc3c(N)nc(NCCc4ccc(CCC(=O)O)cc4)nc32)[C@H](O)[C@@H]1O	105%	102%	96.2%	102%	102%	97.5%	99.9%	99.6%	96.4%	93.3%	92.2%	108%	97.9%	101%	106%	109%	101%	106%	103%	104%	96.8%	96.1%	106%	98.9%	107%	99.8%	105%	97.2%	108%	91.3%	101%	95.9%	93.3%
O=C1CCc2ccc(OCCCCN3CCN(c4cccc(Cl)c4Cl)CC3)cc2N1	106%	110%	106%	74.3%	107%	101%	102%	100%	106%	105%	78.3%	99%	101%	99.7%	85%	110%	98.9%	104%	104%	89.9%	106%	87.3%	92.8%	98.9%	96.9%	80.5%	98.7%	106%	100%	89.2%	93.6%	94.1%	73.1%
CC(C)[C@H](CO)Nc1nc(Nc2cccc(Cl)c2)c2ncn(C(C)C)c2n1	110%	109%	120%	124%	125%	115%	118%	118%	76%	42%	10.2%	98.7%	112%	113%	115%	113%	112%	107%	104%	45.9%	26.6%	8.74%	97.7%	110%	112%	117%	115%	106%	93.4%	102%	58.5%	18.2%	4.68%
C[C@@H]1C[C@H]2[C@@H]3CC\C4=C\C(=O)\C=C/[C@]4(C)[C@@]3(Cl)[C@@H](O)C[C@]2(C)[C@@]1(OC(=O)C5=CC=CO5)C(=O)CCl	99.2%	97.7%	65.4%	54.6%	52.1%	49.3%	53.7%	51.3%	41.6%	32.6%	40.2%	98.5%	93.7%	71.9%	66.9%	64.6%	64.7%	60.8%	61.6%	57.9%	40.9%	50%	93%	84.6%	59.1%	50.6%	44.1%	46.2%	40%	41.2%	35.8%	30.2%	30.7%
CCN1C[C@]2(OC(=O)c3ccccc3NC(C)=O)CC[C@H](OC)[C@@]34[C@@H]2C[C@@H]([C@@H]13)[C@@]1(O)C[C@H](OC)[C@H]2C[C@@H]4[C@]1(O)[C@H]2OC	105%	109%	116%	104%	113%	111%	119%	108%	99.1%	105%	114%	91.8%	109%	110%	113%	114%	109%	106%	111%	103%	106%	108%	103%	111%	115%	110%	117%	106%	115%	110%	104%	107%	102%
COC[C@H]1OC(=O)C2=COC3=C2[C@@]1(C)\C4=C(\[C@@H]5CC[C@H](O)[C@@]5(C)C[C@H]4OC(C)=O)C3=O	104%	121%	67.4%	118%	114%	129%	128%	124%	117%	101%	81.6%	105%	120%	85.6%	117%	120%	123%	127%	123%	121%	109%	68.2%	100%	115%	84.9%	120%	131%	126%	132%	130%	116%	88.8%	58.9%
CNCC(O)C(O)C(O)C(O)CO.O=C(O)c1ccc(-c2cc3cccnc3c(-c3ccc4nonc4c3)n2)cc1	113%	107%	122%	107%	123%	127%	122%	116%	121%	109%	102%	105%	112%	115%	106%	119%	116%	120%	119%	112%	117%	99.4%	104%	114%	111%	104%	115%	114%	119%	120%	113%	104%	89.4%
OC(COC1=C2C(=O)\C=C(/OC2=CC=C1)C([O-])=O)COC3=C4C(=O)\C=C(/OC4=CC=C3)C([O-])=O	98.9%	94.9%	97%	94.2%	103%	89%	87.3%	89.3%	86.9%	83.2%	89.5%	84.8%	80.9%	87.4%	79.2%	90.7%	77.2%	88.4%	90.1%	92%	86.7%	90.4%	75.3%	78.4%	84.8%	82.1%	83.1%	76.7%	81.4%	87.8%	73.4%	81.3%	80.3%
CN(C)C[C@@H]1CC[N]2C=C(C3=C2C=CC=C3)C/4=C(/C(=O)NC4=O)C5=C[N](CCO1)C6=C5C=CC=C6	92.9%	94.8%	100%	98.6%	108%	104%	95.7%	96.2%	97.6%	83.4%	55.3%	99.6%	98.3%	100%	106%	105%	110%	107%	100%	101%	97.5%	30.7%	110%	106%	108%	109%	103%	102%	114%	117%	105%	93.7%	58.9%
NC(=O)c1cccc(N)c1	101%	106%	67.8%	121%	115%	124%	108%	117%	120%	117%	113%	106%	105%	70.8%	116%	120%	122%	117%	117%	121%	111%	116%	101%	112%	78.1%	114%	115%	115%	124%	120%	115%	120%	120%
